According to patent US11427548B2 (Arvinas Operations, Inc., priority 2015, dated 2022):
Like-named read-outs stand apart in the source and are kept apart here.

Molecular target: T1, Androgen Receptor (Homo sapiens, UniProt P10275)
T1 construct: endogenous in cells; host or cells: VCaP cells
T1 sequence (P10275 1-920): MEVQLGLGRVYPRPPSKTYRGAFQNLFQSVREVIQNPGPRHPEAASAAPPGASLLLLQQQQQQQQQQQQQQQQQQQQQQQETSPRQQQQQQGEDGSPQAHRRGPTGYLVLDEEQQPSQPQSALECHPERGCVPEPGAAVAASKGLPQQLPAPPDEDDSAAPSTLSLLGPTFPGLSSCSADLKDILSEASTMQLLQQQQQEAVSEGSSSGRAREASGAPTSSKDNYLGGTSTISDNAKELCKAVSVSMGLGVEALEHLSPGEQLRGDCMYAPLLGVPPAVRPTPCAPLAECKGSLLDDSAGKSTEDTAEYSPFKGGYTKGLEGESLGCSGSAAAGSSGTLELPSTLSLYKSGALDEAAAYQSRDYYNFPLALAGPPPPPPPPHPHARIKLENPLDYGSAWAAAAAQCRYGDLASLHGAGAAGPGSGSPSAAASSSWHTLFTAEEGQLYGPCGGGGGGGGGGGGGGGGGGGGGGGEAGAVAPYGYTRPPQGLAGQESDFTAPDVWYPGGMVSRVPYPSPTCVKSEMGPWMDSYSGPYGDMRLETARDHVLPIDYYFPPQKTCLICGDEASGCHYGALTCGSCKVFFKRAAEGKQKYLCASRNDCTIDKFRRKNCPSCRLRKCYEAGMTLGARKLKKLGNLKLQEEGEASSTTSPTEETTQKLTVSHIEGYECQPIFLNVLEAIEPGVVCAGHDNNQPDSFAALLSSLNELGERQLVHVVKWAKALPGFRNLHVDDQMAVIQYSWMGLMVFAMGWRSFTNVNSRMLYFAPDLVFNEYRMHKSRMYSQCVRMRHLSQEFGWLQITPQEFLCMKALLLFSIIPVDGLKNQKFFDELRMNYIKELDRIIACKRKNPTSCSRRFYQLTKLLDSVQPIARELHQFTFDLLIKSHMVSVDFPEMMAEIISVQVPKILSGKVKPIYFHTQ
Assay: Androgen Receptor ELISA assay (PathScan AR ELISA) in VCaP cells: AR degradation, Dmax and DC50
Assay type: cell-based
Summary of the method: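 VCaP cells in phenol red-free RPMI with 5% charcoal-stripped FBS were grown at least 3 days, then given compound as 7 half-log doses in 0.1% DMSO with 0.1 nM R1881 for 24 h. Lysates went into a sandwich AR ELISA with TMB read at 450 nm.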

[1] = read-out: VCaP DC50; concentration that caused 50% Androgen Receptor degradation, VCaP cells (Table 32)
[2] = VCaP cells; Table 35; read-out: VCaP DC50
[3] = VCaP, VCaP cells; Table 35; read-out: VCaP Dmax (%)
[4] = VCaP cells; Table 36; read-out: VCaP DC50
[5] = VCaP, VCaP cells; Table 36; read-out: VCaP Dmax (%)

Q: How did the Dmax (VCaP, read-out: VCaP Dmax (%)) turn out when CC(C)(C)[C@H](NC(=O)COCCCCOc1ccc(-c2ccc(N3C(=S)N(c4ccc(C#N)c(Cl)c4F)C(=O)C3(C)C)cc2)cc1)C(=O)N1C[C@H](O)C[C@H]1C(=O)NCc1ccc(-c2cnco2)cc1 [Example 123, (2S,4R)-1-[(2S)-2-{2-[4-(4-{4-[3-(3-chloro-4-cyano-2-fluorophenyl)-5,5-dimethyl-4-oxo-2-sulfanylideneimidazolidin-1-yl]phenyl}phenoxy)butoxy]acetamido}-3,3-dimethylbutanoyl]-4-hydroxy-N-{[4-(1,3-oxazol-5-yl)phenyl]methyl}pyrrolidine-2-carboxamide] was run?
A: > 71%

Q: What about the DC50 [1] of the same compound?
A: < 50 nM

Q: Which results are given for Cc1ncsc1-c1ccc(CNC(=O)[C@@H]2C[C@@H](O)CN2C(=O)[C@@H](NC(=O)COCCCCCNc2ccc(C(=O)N[C@H]3C(C)(C)[C@H](Oc4ccc(C#N)c(Cl)c4)C3(C)C)cc2)C(C)(C)C)nc1 [Example 538]?
A: DC50 [2]: > 501 nM; Dmax [3]: 51 to 70%

Q: For Cc1ncsc1-c1ccc([C@H](C)NC(=O)[C@@H]2C[C@@H](O)CN2C(=O)C(c2cc(CCN3CCN(c4ccc(C(=O)N[C@H]5C(C)(C)[C@H](Oc6ccc(C#N)c(Cl)c6)C5(C)C)cn4)CC3)no2)C(C)C)cc1 (stereo partly drawn) [Example 838, N-((1r,3r)-3-(3-chloro-4-cyanophenoxy)-2,2,4,4-tetramethylcyclobutyl)-6-(4-(2-(5-(1-((2S,4R)-4-hydroxy-2-(((S)-1-(4-(4-methylthiazol-5-yl)phenyl)ethyl)carbamoyl)pyrrolidin-1-yl)-3-methyl-1-oxobutan-2-yl)isoxazol-3-yl)ethyl)piperazin-1-yl) nicotinamide], which DC50 [4] is on record?
A: < 50 nM

Q: And the Dmax [5]?
A: 51 to 70%

Q: Which results are given for Cc1ncsc1-c1ccc(CNC(=O)[C@@H]2C[C@@H](O)CN2C(=O)C(NC(=O)COCCN2CCN(c3ccc(C(=O)N[C@H]4C(C)(C)[C@H](Oc5ccc(C#N)c(C(F)(F)F)c5)C4(C)C)cn3)C(=O)C2)C(C)(C)C)cc1 (stereo partly drawn) [Example 711, N-((1r,3r)-3-(4-cyano-3-(trifluoromethyl)phenoxy)-2,2,4,4-tetramethylcyclobutyl)-6-(4-(2-(2-(((S)-1-((2S,4R)-4-hydroxy-2-((4-(4-methylthiazol-5-yl)benzyl)carbamoyl)pyrrolidin-1-yl)-3,3-dimethyl-1-oxobutan-2-yl)amino)-2-oxoethoxy)ethyl)-2-oxopiperazin-1-yl)nicotinamide]?
A: VCaP Dmax (%) (VCaP cells; Table 36): + (Dmax ≤ 25%); DC50 [4]: < 50 nM

Q: What does the source list for Cc1ncsc1-c1ccc(CNC(=O)[C@@H]2C[C@@H](O)CN2C(=O)[C@@H](NC(=O)COCCCOCc2ccc(-c3ccc(N4C(=S)N(c5ccc(C#N)c(C(F)(F)F)c5)C(=O)C4(C)C)cc3)cc2)C(C)(C)C)cc1 [Example 128, (2S,4R)-1-[(2S)-2-[2-(3-{[4-(4-{3-[4-cyano-3-(trifluoromethyl)phenyl]-5,5-dimethyl-4-oxo-2-sulfanylideneimidazolidin-1-yl}phenyl)phen-yl]methoxy}propoxy)acetamido]-3,3-dimethylbutanoyl]-4-hydroxy-N-{[4-(4-methyl-1,3-thiazol-5-yl)phenyl]methyl}pyrrolidine-2-carboxamide]?
A: Dmax (VCaP, read-out: VCaP Dmax (%)): 51 to 70%; DC50 [1]: < 50 nM

Q: Which DC50 [2] does the source give for Cc1ncsc1-c1ccc([C@H](C)NC(=O)[C@@H]2C[C@@H](O)CN2C(=O)[C@@H](NC(=O)COCCOc2ccc(-c3ccc(C(=O)N[C@H]4C(C)(C)[C@H](Oc5ccc(C#N)c(Cl)c5)C4(C)C)cc3)cc2)C(C)(C)C)cc1 [Example 450] here?
A: < 50 nM

Q: And the Dmax [3]?
A: > 71%

Q: What does the source list for Cc1cc(O[C@H]2C(C)(C)[C@H](NC(=O)c3ccc(N4CCN(CCOCC(=O)N[C@H](C(=O)N5C[C@H](O)C[C@H]5C(=O)N[C@@H](C)c5ccc(-c6scnc6C)cc5)C(C)(C)C)CC4)nc3)C2(C)C)ccc1C#N [Example 680, N-((1r,3r)-3-(4-cyano-3-methylphenoxy)-2,2,4,4-tetramethylcyclobutyl)-6-(4-(2-(2-(((S)-1-((2S,4R)-4-hydroxy-2-(((S)-1-(4-(4-methylthiazol-5-yl)phenyl)ethyl)carbam-oyl)pyrrolidin-1-yl)-3,3-dimethyl-1-oxobutan-2-yl)amino)-2-oxoethoxy)ethyl)pipera-zin-1-yl)nicotinamide]?
A: DC50 [4]: < 50 nM; Dmax (VCaP, read-out: VCaP Dmax (%), VCaP cells; Table 36): > 71%

Q: For Cc1ncsc1-c1ccc([C@H](C)NC(=O)[C@@H]2C[C@@H](O)CN2C(=O)[C@H](c2cc(N3CCN(CCCc4ccc(C(=O)N[C@H]5C(C)(C)[C@H](Oc6ccc(C#N)c(Cl)c6)C5(C)C)cc4)CC3)no2)C(C)C)cc1 [Example 796, (2S,4R)-1-((S)-2-(3-(4-(3-(4-(((1r,3r)-3-(3-chloro-4-cyanophenoxy)-2,2,4,4-tetramethylcyclobutyl)carbamoyl)phenyl)propyl)piperazin-1-yl)isoxazol-5-yl)-3-methylbutanoyl)-4-hydroxy-N-((S)-1-(4-(4-methylthiazol-5-yl)phenyl)ethyl)pyrrolidine-2-carboxamide], which DC50 [4] is on record?
A: > 501 nM

Q: What about the Dmax [5] of the same compound?
A: 26 to 50%

Q: How did the DC50 [2] turn out when Cc1ncsc1-c1ccc([C@@H](CN2CCCC2)NC(=O)[C@@H]2C[C@@H](O)CN2C(=O)[C@@H](NC(=O)COCCCCCOc2ccc(C(=O)N[C@H]3C(C)(C)[C@H](Oc4ccc(C#N)c(Cl)c4)C3(C)C)cc2)C(C)(C)C)cc1 [Example 466] was run?
A: 51 to 500 nM

Q: And the Dmax [3]?
A: > 71%

Q: What does the source list for Cc1ncsc1-c1ccc([C@H](C)NC(=O)[C@@H]2C[C@@H](O)CN2C(=O)[C@@H](NC(=O)COCCN2CCN(c3ccc(C(=O)N[C@H]4C[C@@H](Oc5ccc(C#N)c(Cl)c5)C4(C)C)cn3)CC2)C(C)(C)C)cc1 [Example 850, N-((1S,3R)-3-(3-chloro-4-cyanophenoxy)-2,2-dimethylcyclobutyl)-6-(4-(2-(2-(((S)-1-((2S, 4R)-4-hydroxy-2-(((S)-1-(4-(4-methylthiazol-5-yl)phenyl)ethyl)carbamoyl)pyrrolidin-1-yl)-3,3-dimethyl-1-oxobutan-2-yl)amino)-2-oxoethoxy)ethyl)piperazin-1-yl) nicotinamide]?
A: DC50 [4]: < 50 nM; Dmax [5]: 51 to 70%

Q: For CNC(=O)c1ccc(CNC(=O)[C@@H]2C[C@@H](O)CN2C(=O)[C@@H](NC(=O)COCCCCCNc2ccc(C(=O)N[C@H]3C(C)(C)[C@H](Oc4ccc(C#N)c(Cl)c4)C3(C)C)cc2)C(C)(C)C)cc1 [Example 511], which DC50 [2] is on record?
A: < 50 nM

Q: And the Dmax [3]?
A: 51 to 70%

Q: Which results are given for C[C@H](NC(=O)[C@@H]1C[C@@H](O)CN1C(=O)[C@@H](NC(=O)COCCCCOc1ccc(-c2ccc(N3C(=S)N(c4ccc(C#N)c(Cl)c4)C(=O)C3(C)C)cc2)cc1)C(C)(C)C)c1ccc(-c2cnco2)cc1 [Example 132, (2S,4R)-1-[(2S)-2-{2-[4-(4-{4-[3-(3-chloro-4-cyanophenyl)-5,5-dimethyl-4-oxo-2-sulfanylideneimidazolidin-1-yl]phenyl}phenoxy)butoxy]acetamido}-3,3-dimethylbutanoyl]-4-hydroxy-N-[(1S)-1-[4-(1,3-oxazol-5-yl)phenyl]ethyl]pyrrolidine-2-carboxamide]?
A: Dmax (VCaP, read-out: VCaP Dmax (%)): > 71%; DC50 [1]: < 50 nM

Q: What does the source list for Cc1ncsc1-c1ccc([C@H](C)NC(=O)C2C[C@@H](O)CN2C(=O)C(NC(=O)CN2CCC(OCCOc3ccc(C(=O)N[C@H]4C(C)(C)[C@H](Oc5ccc(C#N)c(Cl)c5)C4(C)C)cc3)CC2)C(C)(C)C)cc1 (stereo partly drawn) [Example 623, (2S,4R)-1-((S)-2-(2-(4-(2-(4-(((1r,3r)-3-(3-chloro-4-cyanophenoxy)-2,2,4,4-tetramethylcyclobutyl)carbamoyl)phenoxy)eth-oxy)piperidin-1-yl)acetamido)-3,3-dimethylbutanoyl)-4-hydroxy-N-((S)-1-(4-(4-methylthiazol-5-yl)phenyl)ethyl)pyrrolidine-2-carboxamide]?
A: DC50 [4]: < 50 nM; Dmax [5]: > 71%

Q: Cc1ncsc1-c1ccc([C@H](C)NC(=O)[C@@H]2C[C@@H](O)CN2C(=O)[C@@H](NC(=O)CN2CCO[C@@H](CN3CCO[C@H](COc4ccc(N5C(=O)N(c6ccc(C#N)c(C(F)(F)F)c6)C(=O)C5(C)C)cc4)C3)C2)C(C)(C)C)cc1 [Example 676, (2S,4R)-1-((S)-2-(2-((S)-2-(((S)-2-((4-(3-(4-cyano-3-(trifluoromethyl)phenyl)-5,5-dimethyl-4-oxo-2-thioxoimidazolidin-1-yl)phenoxy)methyl)mor-pholino)methyl)mor-phpolino)acetamido)-3,3-dimethylbutanoyl)-4-hydroxy-N-((S)-1-(4-(4-methylthiazol-5-yl)phenyl)ethyl)pyrrolidine-2-carboxamide] was tested. Which DC50 (read-out: VCaP DC50; VCaP cells; Table 36) did it give?
A: > 501 nM
